Results taken from patent publication US20200261596A1, “Therapeutic Particles with Peptide Boronic Acid or Boronate Ester Compounds and Methods of Making and Using Same” (Pfizer Inc., priority 2016, published 2020).
Values after ≈ are worked out from the molar mass of the structure shown. Where two headings read alike, the source gives them in different places.

What was measured:
Bortezomib solubility = assay type: physicochemical; conditions: read-out: BTZ solubility
[1] = Pharmacologic kinetic profile in rats (plasma levels by LCMS); assay type: in vivo, Sprague-Dawley rats; conditions: single intravenous dose of 0.1 mg/kg, FIG. 13A
Description: Rats (male Sprague Dawley, approximately 300 g with jugular cannulae are given a single intravenous dose of 0.1 mg/kg free drug or passively targeted nanoparticles (PTNP) encapsulating drug at time t=0. At various times after dosing, blood samples are collected from the jugular cannulae into tubes containing lithium heparin, and plasma is prepared. Plasma levels are determined by extraction of the drug from plasma followed by LCMS analysis.

`CC(C)C[C@H](NC(=O)[C@H](Cc1ccccc1)NC(=O)c1cnccn1)B(O)O` [Bortezomib, bortezomib] showed a solubility (Bortezomib solubility; 0.5% sodium cholate, 2% BA, 4% EA in water (water phase), aqueous with cosolvent or surfactant or cyclodextrin, Water phase: 0.5% sodium cholate, 2% BA, 4% EA in water) of 1300 µg/mL (≈ 3.38 mM), a solubility (Bortezomib solubility; benzyl alcohol:ethyl acetate 21:79 (w/w %) (oil phase), organic solvent or mixture, Oil phase: Benzyl alcohol:Ethyl acetate (BA:EA = 21:79, w/w %)) greater than 93000 µg/mL and a solubility (Bortezomib solubility; water (quench phase), water, Quench phase: water) of 1100 µg/mL (≈ 2.86 mM). The “circulation time / plasma clearance” value [1] was “rapidly cleared from the plasma”.
